The record followed here is publication PMC7175277, “Hydroxylamine Analogue of Agmatine: Magic Bullet for Arginine Decarboxylase” (Biomolecules, 2020).

For data set [1], the target named is T1, E. coli ADC (Escherichia coli, UniProt P21170).
T1 construct: The kinetic parameters determined for the partially purified biosynthetic ADC from E. coli; endogenous in cells; host or cells: E. coli DH5α (39-53% ammonium sulphate fraction of the lysate, desalted)
T1 sequence (P21170 1-658): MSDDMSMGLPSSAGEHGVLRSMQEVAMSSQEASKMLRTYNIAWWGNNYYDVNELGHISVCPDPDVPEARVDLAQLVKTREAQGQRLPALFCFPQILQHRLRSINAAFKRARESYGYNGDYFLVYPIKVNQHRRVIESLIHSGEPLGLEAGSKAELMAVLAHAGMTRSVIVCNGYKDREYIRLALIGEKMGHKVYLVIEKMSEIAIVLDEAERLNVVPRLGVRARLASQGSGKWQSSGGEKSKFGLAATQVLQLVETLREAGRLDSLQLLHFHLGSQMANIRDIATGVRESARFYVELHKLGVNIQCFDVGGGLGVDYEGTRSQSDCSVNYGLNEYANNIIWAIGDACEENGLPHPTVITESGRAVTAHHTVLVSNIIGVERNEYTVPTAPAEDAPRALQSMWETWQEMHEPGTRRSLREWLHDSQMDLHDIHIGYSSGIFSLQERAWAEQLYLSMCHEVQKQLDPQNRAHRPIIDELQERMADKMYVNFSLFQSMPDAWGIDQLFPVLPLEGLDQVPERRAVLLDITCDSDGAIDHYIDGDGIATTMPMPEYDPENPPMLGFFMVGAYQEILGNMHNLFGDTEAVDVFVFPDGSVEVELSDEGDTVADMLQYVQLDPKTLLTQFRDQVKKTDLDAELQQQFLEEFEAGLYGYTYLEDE
The data set can be described thus: E. coli ADC activity assay (HPLC of agmatine). The settings on record: 0.1 mM PLP; 15 min preincubation; 0.15 mM L-Arg. It is filed as biochemical. Here is the method: (§1) The purification was performed using a modified procedure of earlier publication. E. coli strain DH5α was grown in Luria-Bertani broth at +37 °C with shaking (200 rpm) overnight. The cells were collected by centrifugation and the pellet was homogenized with Potter-Elvehjem in 10 volumes (w/v) of ice-cold 50 mM Tris-HCl pH 7.4, 1 mM DTT. The cell debris was removed by centrifugation at 12,000 g for 30 min at +4 °C. Solid (NH4)2SO4 was added to the supernatant, and the pellet precipitating between 39% and 53% saturation was separated. The precipitate was resuspended in ice-cold buffer containing 50 mM Tris-HCl pH 7.4 and 1 mM DTT and desalted by passage through Sephadex G-25 column (NAP-10 column, GE Healthcare). The protein concentration was measured with Bio-Rad protein reagent, and the partially purified enzyme preparation was mixed with 20% glycerol and aliquoted for storage at −80 °C.
[…] The ODC reaction mixture contained 50 mM Tris-HCl pH 7.8, 1 mM EDTA, 2.4 mM DTT, 0.1 mM PLP and 20 μg of partially purified enzyme preparation. The mixtures were either preincubated or not preincubated for 15 min at +40 °C in the presence of the inhibitor, after which the reaction was started by the addition of 18 μL of 10× substrate (L-Arg for ADC and L-Orn for ODC). After incubation for 30 min (ADC) or 20 min (ODC) at +40 °C, 20 μL of 50% sulphosalicylic acid containing 50 μM diaminoheptane (internal standard) was added and the samples were analyzed for the content of agmatine (ADC) and Put (ODC) with HPLC as described previously. The kinetic parameters and IC50 values were determined with the aid of GraphPad Prism version 5.03 using nonlinear regression analysis.

In data set [2] the test system is Acremonium chrysogenum wild-type (WT) ATCC 11550. The experiment in a line: Fungal growth inhibition (drop-dilution, CD agar), WT strain. It is filed as cell-based. The settings on record: for inhibition at 5000 µM: Hapsidospora chrysogena, ATCC11550, 336 h, 14 days after inoculation on CD medium. An excerpt:
(§2) Two strains of Acremonium chrysogenum were used in this study: the wild-type (Brotzu) isolate ATCC 11550 (WT) and high-cephalosporin-yielding RNCM F-4081D (HY), derived from the WT [37]. The cultivation conditions were the same as previously described. The filamentous fungi were cultivated on agarized Czapek-Dox (CD) medium (30 g/L sucrose, 2 g/L NaNO3, 1 g/L K2HPO4, 0.5 g/L MgSO4×7 H2O, 0.5 g/L KCl, 0.01 g/L FeSO4×7 H2O, 20 g/L agar, pH 7.0–7.4). To determine the toxic effect of AO-Agm, APA, DFMA and DFMO on the growth of fungal cells the drop-dilution method was used with some modifications as described earlier. Cells were collected from agar slants and diluted with 0.9% NaCl solution up to OD600 = 0.5 (basic concentration), followed by serial tenfold dilutions with the same solution. […] The inoculated Petri dishes were incubated for 21 days at 26 °C. The inhibitory effects of the compounds were measured every three days after inoculation and evaluated by measuring the ratio of colony growth on agarized CD medium supplemented with AO-Agm, APA, DFMA, or DFMO to the growth in the control (agarized CD medium without any additions). The formula: growth inhibition % = [(Dc − Dt)/Dc] × 100, where Dc indicates the colony diameter in control set, and Dt indicates the colony diameter in the treatment set that was used to determine the percent of fungal growth inhibition. The data recorded were measured in triplicate and repeated at least twice.

For data set [3], the system named is Acremonium chrysogenum high-cephalosporin-yielding (HY) RNCM F-4081D. The experiment in a line: Fungal growth inhibition (drop-dilution, CD agar), HY strain. It is filed as cell-based. The note with it: for inhibition at 5000 µM: Hapsidospora chrysogena, 336 h, read-out: Growth inhibition.
Excerpt: as §2

Data set [4] has as its system A. chrysogenum WT strain. The experiment in a line: Polyamine content in the fungi, WT strain. The class given is cell-based, Acremonium chrysogenum. The note with it: 24 h. How it is done:
(§3) WT and HY A. chrysogenum strains were preliminarily grown in tubes on CD medium slants for 7 days at 25 °C and used for the inoculation of 30 mL of a liquid CD medium (seed medium). The strains were cultivated on CD medium for 48 h at 26 °C and inoculated into ten volumes of CD medium. The fermentation was carried out for 120 h at 26 °C in 250-mL Erlenmeyer flasks on a CERTOMAT BS-1 shaker (Sartorius, Germany) at 230 rpm, as described earlier. After 24 h of culture, 1 mL aliquots were removed, fungi were separated by centrifugation (15 min, 14,000 g) and washed with H2O (3 × 2 mL). The washed biomass was subjected to three cycles of freezing (−80 °C) and thawing at 20 °C in 5% perchloric acid. After the final thaw, samples were vortexed for 2 min and centrifuged for 10 min at 14,000 g. The supernatant was used for the determination of polyamine content.
(§4) The dry biomass was prepared from 2 mL aliquots of fermentation media after 24 h. The biomass was separated by centrifugation (15 min, 14,000 g), the precipitated fungi cells were washed in triplicate with 10 volumes of H2O, dried at 80 °C for 96 h to a constant weight and used for normalization of polyamine content in the fungi.
(§5) Polyamines were determined by HPLC from 50 µL of the 5% perchloric acid supernatant using a precolumn modification with Dans-Cl following mostly the published protocol. 1,7-Diaminoheptane was used as an internal standard and proline applied to quench the dansylation reaction. The solution of the dansylated polyamines in toluene (2 μL) was mixed with 50% aq. ethanol (13 µL) and applied on a reversed phase column (Cosmosil C18-MS-II, 250 × 4.6 mm, 5 µm). The column was eluted (1 mL/min) with the gradient: 0 min—0% B; 4 min—65% B; 17 min—65% B; 19 min—100% B, 23 min—100% B, 25 min—0% B; 30 min—0% B. System A—40% acetonitrile, 60% H2O. System B—80% acetonitrile, 20% tetrahydrofuran. Column temperature 40 °C, pressure 80–120 bar, fluorescent detection: λex 340 nm, λem 530 nm (detector RF-20A, Shimadzu Scientific Instrument, Columbia, MD, USA).

Data set [5] has as its system A. chrysogenum HY strain. The experiment in a line: Polyamine content in the fungi, HY strain. The class given is cell-based, Acremonium chrysogenum. The settings on record: 24 h. Here is the method: as §3, §4, §5
The target of data set [6] is E. coli ODC (Escherichia coli, UniProt P21169). The experiment in a line: E. coli ODC activity assay (HPLC of Put). The class given is biochemical. How it is done:
as §1
The ADC reaction mixture contained 50 mM Tris-HCl pH 7.8, 4 mM MgCl2, 1 mM DTT, 1.0 or 0.1 mM PLP and 20 μg of partially purified enzyme preparation in a total volume of 162 μL. The ODC reaction mixture contained 50 mM Tris-HCl pH 7.8, 1 mM EDTA, 2.4 mM DTT, 0.1 mM PLP and 20 μg of partially purified enzyme preparation. […] After incubation for 30 min (ADC) or 20 min (ODC) at +40 °C, 20 μL of 50% sulphosalicylic acid containing 50 μM diaminoheptane (internal standard) was added and the samples were analyzed for the content of agmatine (ADC) and Put (ODC) with HPLC as described previously. The kinetic parameters and IC50 values were determined with the aid of GraphPad Prism version 5.03 using nonlinear regression analysis.

In data set [7] the test system is DU145 prostate cancer cells. The data set can be described thus: Growth of DU145 cells. It is filed as cell-based. The settings on record: SC (1 mM) alone; 3 days. How it is done:
(§6) DU145 prostate cancer cells were cultured in high-glucose Dulbecco’s Modified Eagle’s Medium supplemented with 10% heat-inactivated fetal bovine serum, 2 mM L-glutamine and 50 μg/mL gentamycin (all from Sigma-Aldrich). The cells were plated on 6-well plates and allowed to attach overnight. […] The cells were harvested, and the pellet was mixed with 150 μL of 5% sulphosalicylic acid containing 5 μM diaminoheptane (internal standard). Polyamine analysis was carried out as described previously.

Data set [8] has as its system DU145 prostate cancer cells. The experiment in a line: Intracellular polyamine pools of DU145 cells. It is filed as cell-based. The settings on record: SC (1 mM) alone; 3 days. How it is done:
as §6

Substrate in data set [9]: N=C(N)NCCC[C@H](N)C(=O)O
The data set can be described thus: E. coli ADC activity assay (HPLC of agmatine). The class given is biochemical. The settings on record: other: partially purified ADC, pH 7.8. Here is the method: as §1
[…] After incubation for 30 min (ADC) or 20 min (ODC) at +40 °C, 20 μL of 50% sulphosalicylic acid containing 50 μM diaminoheptane (internal standard) was added and the samples were analyzed for the content of agmatine (ADC) and Put (ODC) with HPLC as described previously. The kinetic parameters and IC50 values were determined with the aid of GraphPad Prism version 5.03 using nonlinear regression analysis.

Chain of E. coli ODC (P21169 whole entry): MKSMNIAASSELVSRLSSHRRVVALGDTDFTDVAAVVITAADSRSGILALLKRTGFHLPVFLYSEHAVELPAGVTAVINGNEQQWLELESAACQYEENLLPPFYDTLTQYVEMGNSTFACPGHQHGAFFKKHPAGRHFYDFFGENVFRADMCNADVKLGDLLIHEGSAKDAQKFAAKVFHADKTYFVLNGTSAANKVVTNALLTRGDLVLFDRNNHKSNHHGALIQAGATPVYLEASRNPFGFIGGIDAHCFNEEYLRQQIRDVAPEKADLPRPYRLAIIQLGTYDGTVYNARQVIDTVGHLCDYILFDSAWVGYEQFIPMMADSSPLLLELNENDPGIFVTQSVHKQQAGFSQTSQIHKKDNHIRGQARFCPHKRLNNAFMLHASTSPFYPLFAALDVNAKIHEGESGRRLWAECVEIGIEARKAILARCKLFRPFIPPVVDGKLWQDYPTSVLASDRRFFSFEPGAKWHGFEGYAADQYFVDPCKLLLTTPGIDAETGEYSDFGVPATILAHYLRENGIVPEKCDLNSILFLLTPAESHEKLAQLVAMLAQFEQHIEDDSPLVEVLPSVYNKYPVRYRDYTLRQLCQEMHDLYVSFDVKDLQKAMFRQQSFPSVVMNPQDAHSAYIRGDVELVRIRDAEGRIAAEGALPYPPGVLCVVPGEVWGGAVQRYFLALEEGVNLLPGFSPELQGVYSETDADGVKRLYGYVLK

With `N=C(N)NCCCC(N)(C(=O)O)C(F)F` (racemic) [DFMA, D,L-α-(difluoromethyl)arginine], the IC50 (commonly the concentration that gives 50% inhibition) in [1] came to 10 ± 1 µM. Besides, the inhibition (as a rule, the change of the read-out against control, counted positive when it falls) at 5000 µM in [2] (5 mM inhibitor) was 7%; in data set [3], 13%.
Consider `NCCC[C@](N)(C(=O)O)C(F)F` [DFMO, α-(Difluoromethyl)ornithine], for which the “Growth inhibition compared with 1 mM APA” value in [2] (1 mM inhibitor) is “significantly less effective”. Moreover, the “Growth of WT strain” value in data set [2] (5 mM inhibitor) is reported as “completely inhibited”. Further, the “Effect of 0.5 mM Spd on the growth arrest caused by the inhibitor” value in [2] (5 mM inhibitor + 0.5 mM Spd) is on record as “reversed the growth arrest”. Besides, the results for the inhibition at 5000 µM in data set [2] (5 mM inhibitor) and in data set [3] were 100% and 41%, respectively. For the same molecule, the Put in data set [4] (5 mM DFMO + 0.5 mM Spd), in data set [4] (5 mM DFMO), in [5] (5 mM DFMO + 0.5 mM Spd) and in data set [5] (5 mM DFMO) was less than 10 pmol/mg Dry Weight throughout. The Spd in data set [4] (5 mM DFMO + 0.5 mM Spd) is given as 11,530 ± 3690 pmol/mg Dry Weight; in data set [4] (5 mM DFMO), 140 ± 10 pmol/mg Dry Weight; in data set [5] (5 mM DFMO + 0.5 mM Spd), 46,630 ± 6700 pmol/mg Dry Weight; in data set [5] (5 mM DFMO) it was 410 ± 60 pmol/mg Dry Weight. In addition, the Spm was 90 ± 30 pmol/mg Dry Weight in [4] (5 mM DFMO + 0.5 mM Spd), 170 ± 20 pmol/mg Dry Weight in [4] (5 mM DFMO), 340 ± 56 pmol/mg Dry Weight in data set [5] (5 mM DFMO + 0.5 mM Spd) and 424 ± 39 pmol/mg Dry Weight in data set [5] (5 mM DFMO). Besides, the “Potency to inhibit E. coli ODC” value in [6] (0.1 mM PLP, 15 min preincubation, 7 mM L-Orn) is given as “very low potency”. For the same molecule, the “Growth inhibition compared with 5 mM” value in [3] (HY strain, 1 mM inhibitor) is “much less effective”.
Consider `NCCC[C@H](N)C(=O)O` [L-Orn, L-ornithine], for which the Vmax in data set [6] (partially purified ODC) worked out at 709 ± 7 nmol/h/mg protein.
`NNC(N)=O` [SC, semicarbazide, reference compound] showed a Growth in [7] of 1.00 ± 0.04 Fold. In [8], this molecule showed a Put of 1258 ± 157 pmol/mg Protein, a Spd of 6483 ± 282 pmol/mg Protein and a Spm of 3582 ± 146 pmol/mg Protein.
For `NCCCCNCCCN` [Spd, spermidine], in [4] (0.5 mM Spd), the Put was less than 10 pmol/mg Dry Weight, the Spd is reported as 12,200 ± 2180 pmol/mg Dry Weight and the Spm came out at 70 ± 10 pmol/mg Dry Weight. Moreover, in data set [5] (0.5 mM Spd), the Put was less than 10 pmol/mg Dry Weight, the Spd was 39,180 ± 4840 pmol/mg Dry Weight and the Spm came out at 330 ± 10 pmol/mg Dry Weight.

B1: E. coli ADC (Escherichia coli K-12) (protein)
chain: T1 sequence (P21170 1-658)
notes: The kinetic parameters determined for the partially purified biosynthetic ADC from E. coli; endogenous in cells; host or cells: E. coli DH5α (39-53% ammonium sulphate fraction of the lysate, desalted)
Turning to B1, in data set [9], the Km (as a rule, the substrate concentration at which the rate is half of its maximum) is 158 ± 5 µM and the Vmax was determined as 546 ± 5 nmol/h/mg protein.
